From the NIST ThermoML archive (doi:10.1021/acs.jced.6b00350)
“And” between values parts separate entries of the source, which are not always exact repeats. Equal values may be shown once.

Conditions: Liquid, Hot wire method

FC(F)CC(F)(F)F [1,1,1,3,3-pentafluoropropane]
Conditions | thermal conductivity
262.46 K, 31214 kPa | 0.1107 W/m/K
262.47 K, 25250 kPa | 0.1091 W/m/K
262.47 K, 31210 kPa | 0.1107 W/m/K
262.48 K, 8852 kPa | 0.1036 W/m/K
262.48 K, 14086 kPa | 0.1051 W/m/K
262.48 K, 14126 kPa | 0.1053 W/m/K
262.49 K, 4309 kPa | 0.1016 W/m/K
262.49 K, 4315 kPa | 0.1017 W/m/K
262.5 K, 19581 kPa | 0.1068 W/m/K
262.51 K, 19565 kPa | 0.1063 W/m/K
262.54 K, 274 kPa | 0.09981 W/m/K
262.55 K, 264 kPa | 0.09976 W/m/K
262.84 K, 36891 kPa | 0.1121 W/m/K
262.84 K, 36917 kPa | 0.112 W/m/K
262.84 K, 43922 kPa | 0.1137 W/m/K
262.85 K, 43951 kPa | 0.1138 W/m/K
262.85 K, 51258 kPa | 0.1158 W/m/K
262.86 K, 51253 kPa | 0.1158 W/m/K
262.86 K, 58802 kPa | 0.1175 W/m/K
262.87 K, 58823 kPa | 0.1177 W/m/K
262.87 K, 68778 kPa | 0.12 W/m/K
262.87 K, 68811 kPa | 0.1201 W/m/K
262.89 K, 68892 kPa | 0.1203 W/m/K
262.9 K, 68869 kPa | 0.1204 W/m/K
262.97 K, 25291 kPa | 0.1088 W/m/K
262.97 K, 31137 kPa | 0.1104 W/m/K
262.97 K, 31171 kPa | 0.1105 W/m/K
262.98 K, 25286 kPa | 0.1085 W/m/K
263 K, 8795 kPa | 0.1032 W/m/K
263 K, 14094 kPa | 0.105 W/m/K
263 K, 14117 kPa | 0.1048 W/m/K
263.01 K, 8802 kPa | 0.1032 W/m/K
263.01 K, 19580 kPa | 0.1068 W/m/K
263.01 K, 19587 kPa | 0.1069 W/m/K
263.02 K, 4283 kPa | 0.1017 W/m/K
263.04 K, 4280 kPa | 0.1019 W/m/K
263.09 K, 251 kPa | 0.09992 W/m/K
263.09 K, 258 kPa | 0.1003 W/m/K
263.37 K, 43936 kPa | 0.1139 W/m/K
263.37 K, 51250 kPa | 0.1158 W/m/K
263.37 K, 68817 kPa | 0.1201 W/m/K
263.38 K, 43899 kPa | 0.1139 W/m/K
263.38 K, 51246 kPa | 0.1158 W/m/K
263.38 K, 58767 kPa | 0.1179 W/m/K
263.38 K, 58789 kPa | 0.1175 W/m/K
263.38 K, 68795 kPa | 0.12 W/m/K
263.39 K, 68867 kPa | 0.1202 W/m/K
263.39 K, 68877 kPa | 0.1202 W/m/K
281.24 K, 123 kPa | 0.09294 W/m/K
281.26 K, 5085 kPa | 0.09534 W/m/K
281.26 K, 10502 kPa | 0.09742 W/m/K
281.26 K, 16109 kPa | 0.09972 W/m/K
281.27 K, 5081 kPa | 0.09537 W/m/K
281.27 K, 10497 kPa | 0.09773 W/m/K
281.27 K, 16120 kPa | 0.09962 W/m/K
281.27 K, 36450 kPa | 0.1067 W/m/K
281.28 K, 29163 kPa | 0.1037 W/m/K and 0.1042 W/m/K
281.28 K, 36455 kPa | 0.1069 W/m/K
281.29 K, 22340 kPa | 0.1017 W/m/K and 0.1016 W/m/K
281.31 K, 44258 kPa | 0.1094 W/m/K
281.32 K, 44270 kPa | 0.1086 W/m/K
281.36 K, 52956 kPa | 0.1121 W/m/K
281.37 K, 61439 kPa | 0.1132 W/m/K
281.37 K, 61447 kPa | 0.1138 W/m/K
281.39 K, 68582 kPa | 0.1153 W/m/K
281.4 K, 68575 kPa | 0.1156 W/m/K
281.68 K, 36448 kPa | 0.1069 W/m/K
281.69 K, 123 kPa | 0.09324 W/m/K
281.69 K, 16102 kPa | 0.09989 W/m/K
281.69 K, 16110 kPa | 0.0999 W/m/K
281.69 K, 36460 kPa | 0.1069 W/m/K
281.7 K, 123 kPa | 0.09319 W/m/K
281.7 K, 10499 kPa | 0.09772 W/m/K
281.7 K, 29156 kPa | 0.1046 W/m/K
281.71 K, 10506 kPa | 0.09793 W/m/K
281.71 K, 29164 kPa | 0.1045 W/m/K
281.71 K, 44250 kPa | 0.109 W/m/K
281.72 K, 5099 kPa | 0.09526 W/m/K
281.72 K, 22328 kPa | 0.1023 W/m/K
281.72 K, 22339 kPa | 0.1018 W/m/K
281.72 K, 44261 kPa | 0.1096 W/m/K
281.73 K, 5092 kPa | 0.09542 W/m/K
281.74 K, 52967 kPa | 0.1113 W/m/K
281.74 K, 61451 kPa | 0.1132 W/m/K
281.75 K, 52979 kPa | 0.1116 W/m/K
281.75 K, 61458 kPa | 0.1139 W/m/K
281.78 K, 68577 kPa | 0.1148 W/m/K
281.78 K, 68579 kPa | 0.1154 W/m/K
282.14 K, 36443 kPa | 0.1066 W/m/K
282.14 K, 36448 kPa | 0.1061 W/m/K
282.16 K, 44239 kPa | 0.109 W/m/K
282.16 K, 44256 kPa | 0.1087 W/m/K
282.17 K, 29157 kPa | 0.1038 W/m/K
282.17 K, 29166 kPa | 0.1045 W/m/K
282.18 K, 16109 kPa | 0.09967 W/m/K
282.18 K, 52974 kPa | 0.1114 W/m/K
282.18 K, 61442 kPa | 0.114 W/m/K
282.18 K, 61445 kPa | 0.1137 W/m/K
282.19 K, 16097 kPa | 0.09999 W/m/K
282.19 K, 52971 kPa | 0.1111 W/m/K
282.2 K, 10491 kPa | 0.09788 W/m/K
282.2 K, 22326 kPa | 0.1018 W/m/K
282.2 K, 22330 kPa | 0.1022 W/m/K
282.21 K, 122 kPa | 0.09344 W/m/K
282.21 K, 123 kPa | 0.09288 W/m/K
282.21 K, 10493 kPa | 0.0975 W/m/K
282.21 K, 68577 kPa | 0.1158 W/m/K
282.22 K, 5074 kPa | 0.09546 W/m/K
282.22 K, 68599 kPa | 0.1157 W/m/K
282.23 K, 5088 kPa | 0.0957 W/m/K
282.64 K, 61432 kPa | 0.1136 W/m/K
282.65 K, 36437 kPa | 0.1064 W/m/K
282.65 K, 44235 kPa | 0.109 W/m/K
282.65 K, 61439 kPa | 0.1136 W/m/K
282.66 K, 44247 kPa | 0.1092 W/m/K
282.67 K, 52971 kPa | 0.1109 W/m/K
282.67 K, 52972 kPa | 0.1115 W/m/K
282.68 K, 29156 kPa | 0.104 W/m/K
282.68 K, 29162 kPa | 0.104 W/m/K
282.68 K, 68589 kPa | 0.1157 W/m/K
282.69 K, 68577 kPa | 0.1155 W/m/K
282.71 K, 16110 kPa | 0.09975 W/m/K and 0.09954 W/m/K
282.72 K, 22340 kPa | 0.1019 W/m/K
282.73 K, 22342 kPa | 0.1021 W/m/K
282.74 K, 10500 kPa | 0.09762 W/m/K
282.77 K, 5087 kPa | 0.09576 W/m/K
282.78 K, 123 kPa | 0.09344 W/m/K and 0.09326 W/m/K
282.78 K, 5079 kPa | 0.0959 W/m/K
283.17 K, 61441 kPa | 0.1135 W/m/K
283.17 K, 61445 kPa | 0.1138 W/m/K
283.19 K, 68547 kPa | 0.1156 W/m/K
283.19 K, 68582 kPa | 0.1158 W/m/K
283.2 K, 36442 kPa | 0.1068 W/m/K
283.2 K, 36446 kPa | 0.1068 W/m/K
283.2 K, 44231 kPa | 0.109 W/m/K
283.2 K, 44239 kPa | 0.1089 W/m/K
283.2 K, 52973 kPa | 0.1113 W/m/K
283.21 K, 52984 kPa | 0.1112 W/m/K
